Test results from US10709682B2, “Treatment of tinnitus through modulation of chloride co-transporter NKCC1 in the auditory system” (OTOLANUM AG, priority 2011, dated 2020).
“Also recorded” adds a separate entry of the source.

Tests used:
NKCC1 versus KCC2 = details: Blaesse et al., 2009, cited from earlier work
[1] = tested on: KCC2 expression in cochlear tissue; assay: Real-time PCR for KCC2 expression in cochlear tissue after noise or sham exposure and local treatment; format: in vivo, rat
Protocol: 20 adult female Wistar rats were anaesthetized as described above for the previous experiments. First, auditory brainstem response (ABR) measurements were performed. As in Experiment 2, they were then exposed in a sound attenuation booth for 1.5 hours to a continuous 10 kHz tone at an intensity of 120 dB SPL (Group A; n×10) or sham exposed in the same setting (Group B; n=10). Animals were treated bilaterally right after noise trauma with either artificial perilymph (AP) or bumetanide (Sigma B3023, Lot 027Ko988). AP was prepared freshly in accordance with Guitton et al., 2003 (140 mM NaCl, 4 mM KCl, 2 mM CaCl2, 2m M MgCl2, 10 mM glucose, 10 mM HePES). Bumetanide (300 μM) was prepared as follows: 50 mg of bumetanide powder was diluted in 6.87 ml AP. This 20 mM stock solution was diluted 1:66 in AP (15.15 μL stock solution and 984.85 μL AP). 5 animals of Group A and 5 animals of Group B received AP (total 10 animals) and 5 animals of Group A and 5 animals of Group B received bumetanide total (10 animals). For the local treatment administration, the fur was removed behind the ears and the bulla exposed in a retro-auricular approach. A small hole was carefully drilled into the bony bulla just above the round window niche (0.6-1 mm in diameter). The mucosa was opened and the region around the round window carefully dried of fluid. Through the hole, a small gel-foam pellet (Gelita Tampon; Braun, Melsungen, Germany) was inserted into the round window niche, 5-8 μl of bumetanide solution or AP were applied on the gel foam by means of a precision pipette with gel loader tips, thus avoiding air bubbles under the gel. […] The hole in the bulla was then covered from the outside with muscular tissue and the wound was sutured with surgical thread (Vicryl, Johnson & Johnson, Norderstedt, Germany). Postoperatively the animals were kept warm with the body temperature being controlled until wake-up. […] For the real-time PCR reaction 12.5 μl of SYBRGreen (QuantiFast Sybr Green, Qiagen), 1 μl Primer Mix, 7.3 μl ddH2O and 4 μl cDNA were used per well. […]

[2] = tested on: inner hair cell ribbon synapses; assay: Count of inner hair cell ribbon synapses after noise or sham exposure and local treatment; format: in vivo, rat; details: bumetanide 300 μM local at round window, 2 weeks following noise
Protocol: Ribbon synapses of inner hair cells were counted. Sections were viewed using an Olympus AX70 microscope equipped with epifluorescence illumination (100× objective, NA=1.35) and a motorized z-axis. Images were acquired using a CCD camera and the imaging soft-ware Cell^F (OSIS GmbH, Münster, Germany). For Otoferlin and CtBP2/RIBEYE immunopositive spot counting on cryo-sectioned cochleae were performed through imaging over a distance of 8 μm with the complete coverage of the IHC nucleus and beyond in an image-stack along the z-axis (z-stack). Typically z-stacks consisted of 30 layers with a z-increment of 0.276 µm, for each layer one image per fluorochrome was acquired. Z-stacks were 3-dimensionally deconvoluted using Cell^F's RIDE module with the Nearest Neighbour algorithm (OSIS GmbH, Müster, Germany). 20 adult female Wistar rats were anaesthetized as described above for the previous experiments. First, auditory brainstem response (ABR) measurements were performed. As in Experiment 2, they were then exposed in a sound attenuation booth for 1.5 hours to a continuous 10 kHz tone at an intensity of 120 dB SPL (Group A; n×10) or sham exposed in the same setting (Group B; n=10). Animals were treated bilaterally right after noise trauma with either artificial perilymph (AP) or bumetanide (Sigma B3023, Lot 027Ko988). […] Ribbon synapses of inner hair cells were counted as in Experiment 2.

tinnitus [3] = details: Westerberg et al., 1996 (baclofen); Piccirillo et al., 2007 (gabapentin); cited from earlier work
[4] = tested on: behavioural correlate of tinnitus; details: chronic tinnitus induced by noise trauma; vigabatrin treatment; cited from earlier work
tinnitus [5] = details: cited from earlier work

SMILES: CCCCNc1cc(C(=O)O)cc(S(N)(=O)=O)c1Oc1ccccc1 [bumetanide]
- Affinity for NKCC1 versus KCC2 (NKCC1 versus KCC2; Payne et al., 2003): much higher affinity for NKCC1 than for KCC2
- KCC2 expression (down-regulation) in noise exposed, bumetanide treated ears versus sham exposed ears ([1]; noise exposed ears (10 kHz, 120 dB SPL, 1.5 h), bumetanide 300 μM local at round window, 15 days following treatment): No such down-regulation
- KCC2 expression in noise exposed ears, bumetanide treated versus AP treated ([1]; noise exposed ears, bumetanide 300 μM local at round window, 15 days following treatment, p<0.01): statistically significant difference; also recorded: statistically significantly different
- KCC2 expression, bumetanide versus AP treated, sham exposed ears ([1]; sham exposed ears (Group B), bumetanide 300 μM, 5-8 μl on gel foam at round window niche, cochlear tissue 15 days following treatment): no difference
- Decline of inner hair cell ribbons in noise exposed ears that received bumetanide versus sham exposed ([2]; midbasal and basal cochlear turns): not significant
- Inner hair cell ribbon numbers in noise exposed ears, bumetanide versus AP treated ([2]; noise exposed ears, p<0.02): significant difference; also recorded: reduced loss of inner hair cell ribbons

SMILES: NCC(CC(=O)O)c1ccc(Cl)cc1 (stereo not drawn) [baclofen]
- Effect on tinnitus (tinnitus [3]): no effects at all

SMILES: NCC1(CC(=O)O)CCCCC1 [gabapentin]
- Effect on tinnitus (tinnitus [3]): no effects at all

SMILES: C=CC(N)CCC(=O)O (stereo not drawn) [vigabatrin]
- Behavioural correlate of tinnitus [4]: reversibly suppressed

SMILES: NS(=O)(=O)c1cc(C(=O)O)c(NCc2ccco2)cc1Cl [furosemide]
- Induction of tinnitus and hearing loss (tinnitus [5]; administered at high doses): induce temporary tinnitus and hearing loss
- Suppression of tinnitus (tinnitus [5]; patients, effects only for tinnitus of cochlear rather than central origin): suppress tinnitus, albeit only in a reversible fashion and not in all patients
- Potency of blocking NKCC1 versus KCCs (NKCC1 versus KCC2): approximately equal potency
